These results are taken from patent publication US20240262844A1, “PYRIDINIUM SALTS AND METHODS OF USE” (UNIVERSITY OF WYOMING, priority 2023, published 2024).

Values joined by “and” are separate entries in the source; they are usually repeats but may differ in a detail not shown here. Identical values can stand only once. Counter-ions that a name gives are not always drawn.

Test [1] deals with Octreotide acetate (1 kDa). Kind of test: Photochemical labeling of octreotide (LC/MS). The class given is biochemical. To be noted: 10 μM octreotide acetate, 100 μM pyridinium salt, 30 minutes. The protocol:
(§1) General Procedure B: Photochemical Irradiation of Peptides and Proteins: To a 2 mL Pyrex LC/MS vial (Thermo model #03-391-39) were sequentially added solutions containing the desired biomolecule, glutathione (GSH), pyridinium salt, and ammonium acetate (NH4OAc). The resulting solution was diluted to a final volume of 500 μL and then sparged using nitrogen for a minimum of 30 minutes prior to irradiation. The actively sparging solution was then placed in an EvoluChem™ PhotoRedOx Box photoreactor that was equipped with a Kessil, PR160 427 nm LED Lamp and was then irradiated (100% lamp intensity) for the designated time at room temperature while maintaining active sparging. The resultant reaction mixture was then analyzed directly by LC/MS. Analysis of labeling outcomes using LC/MS was performed either by extracted ion chromatogram intensities (method A) or by integrating the area under the peaks associated with peptide content (method B). These values were totaled, and estimated percentages were assigned according to relative intensities of peaks or ion counts.
Labeling of Octreotide with Pyridinium Salt 2a (Octreotide-2a Conjugate). […] The resulting reaction mixture was directly analyzed by LC/MS using method A to have proceeded with 88% conversion with mono labeling. […]

For test [2], the target named is T1, bovine carbonic anhydrase II (29 kDa) (Bos taurus, UniProt P00921).
T1 construct: Carbonic Anhydrase Isozyme II from bovine erythrocytes; purchased Sigma Aldrich; host or cells: bovine erythrocytes
T1 sequence (P00921 whole entry): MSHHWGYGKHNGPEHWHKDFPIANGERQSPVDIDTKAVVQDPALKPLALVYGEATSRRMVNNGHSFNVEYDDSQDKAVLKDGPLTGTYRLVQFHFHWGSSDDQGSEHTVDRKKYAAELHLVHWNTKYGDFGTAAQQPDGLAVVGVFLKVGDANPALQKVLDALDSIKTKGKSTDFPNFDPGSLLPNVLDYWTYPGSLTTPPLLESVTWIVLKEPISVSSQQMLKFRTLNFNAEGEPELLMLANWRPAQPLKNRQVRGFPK
Kind of test: Photochemical labeling of bovine carbonic anhydrase II (LC/MS, MS-MS). The class given is biochemical. The procedure:
as §1, with “Analysis of labeling outcomes using LC/MS was performed either by extracted ion chromatogram intensities (method A) or by integrating the area under the peaks associated with peptide content (method B). These values were totaled, and estimated percentages were assigned according to relative intensities of peaks or ion counts.” left out
Labeling of Bovine Carbonic Anhydrase II with Pyridinium Salt 2a (Bovine Carbonic Anhydrase II-2a Conjugate). […] The reaction mixture was directly analyzed by LC/MS using method A and was estimated to have proceeded with 34% conversion and a 4.5:1 mono:di labeled ratio. […]
General Trypsin Digest Protocol B: For non-cystine bridged labeled proteins, a standard trypsin digest was modified as follows. […] The digested mixture was analyzed directly by LC/MS and MS/MS using method C. […] The reduced product was analyzed by LC/MS-MS by selecting m/z=1108.4 for collision-induced dissociation (Collision energy=35 V). […]

`COC(=O)N(C)[n+]1c(C)cc(-c2ccc3cc(OC)ccc3c2)cc1C` [Pyridinium salt 2a, 1-((methoxycarbonyl)(methyl)amino)-4-(6-methoxynapthalen-2-yl)-2,6-dimethylpyridin-1-ium tetrafluoroborate]: the conversion in test [1] (20 mM NH4OAc pH 6.9, glutathione, 427 nm LED) was 88% and 93%. In addition, the degree of labeling result in test [1] (427 nm) is given as “mono labeling”. Moreover, the glutathionylation result in test [2] (10 μM carbonic anhydrase II, 200 μM pyridinium salt, 300 μM glutathione, 60 minutes) is “No glutathionylation was observed”. Moreover, in test [2] (digestion/MS-MS), the “identifiable site of modification” value was “Trp-243”.
